Test results published in patent publication US11076595B2, “1-(n,n-disubstituted carbamoyl) 4-(substituted sulfonyl)triazolin-5-one derivative, 4-(n,n-disubstituted carbamoyl) 1-(substituted sulfonyl)triazolin-5-one derivative, and herbicide containing said derivative as active ingredient” (HOKKO CHEMICAL INDUSTRY CO., LTD., priority 2017, dated 2021).

Legend:
Format in all cases: in vivo
[1] = system: Scirpus juncoides; test: Test Example 1: herbicidal effect test by soil treatment in paddy field; details: 120 g/10a, paddy soil treatment just after sowing, 14 days after treatment
Source text: (§1) A Wagner pot having an area of 1/10000 are was filled with paddy field soil and after adding water, a chemical fertilizer (N:P:K=17:17:17) was mixed, followed by puddling. Thereafter, 30 grains of each of Echinochloa crus-galli, broad-leaved weed (Lindernia pyxidaria and Monochoria vaginalis) and Scirpus juncoides seeds were sown to a depth of 0 to 1 cm. Immediately after the sowing, the pot was flooded, and the depth of water was kept at about 3 cm. The pot was subsequently managed in a glass greenhouse. Just after that, an emulsifiable concentrate prepared according to Formulation Example 5 by using the compound shown in Table 5 below was diluted with water, and a predetermined amount of the water-diluted formulation was added dropwise. The application rate of the active ingredient, by conversion, corresponded to 120 g per 10 are.
(§2) This test was performed with two replications per one formulation concentration plot, and 14 days after the formulation treatments, the weed suppression rate (%) was determined according to the following equation (Math. 1). Weed suppression rate (%)=(1−an average dry weight (g) of plants in treated plots/an average dry weight (g) of plants in untreated plots)×100 [Math. 1]

[2] = system: Echinochloa crus-galli; test: as above; details: 120 g/10a, paddy soil treatment just after sowing, 14 days after treatment
Source text: as §1, §2

[3] = system: Monochoria vaginalis; test: as above; details: 120 g/10a, paddy soil treatment just after sowing, 14 days after treatment
Source text: as §1, §2

[4] = system: Lindernia pyxidaria; test: as above; details: 120 g/10a, paddy soil treatment just after sowing, 14 days after treatment
Source text: as §1, §2

[5] = system: Scirpus juncoides; test: Test Example 2: herbicidal effect test by treatment during growing period in paddy field; details: treatment 7 days after sowing, 120 g/10a, evaluated 14 days after treatment
Method: as §2
as §1, with “greenhouse. Seven days” for “greenhouse. Just”, “after sowing,” for “after that,”, “Table 6” for “Table 5”, “are. The test was performed with two replications per one formulation concentration plot, and 14 days after the formulation treatments, the weed suppression rate (%) was determined according to the equation (Math. 1).” for “are.”

[6] = system: Echinochloa crus-galli; test: as above; details: treatment 7 days after sowing, 120 g/10a, evaluated 14 days after treatment
Method: as §2
as §1, with “greenhouse. Seven days” for “greenhouse. Just”, “after sowing,” for “after that,”, “Table 6” for “Table 5”, “are. The test was performed with two replications per one formulation concentration plot, and 14 days after the formulation treatments, the weed suppression rate (%) was determined according to the equation (Math. 1).” for “are.”

[7] = system: Monochoria vaginalis; test: as above; details: treatment 7 days after sowing, 120 g/10a, evaluated 14 days after treatment
Method: as §2
as §1, with “greenhouse. Seven days” for “greenhouse. Just”, “after sowing,” for “after that,”, “Table 6” for “Table 5”, “are. The test was performed with two replications per one formulation concentration plot, and 14 days after the formulation treatments, the weed suppression rate (%) was determined according to the equation (Math. 1).” for “are.”

[8] = system: Lindernia pyxidaria; test: as above; details: treatment 7 days after sowing, 120 g/10a, evaluated 14 days after treatment
Method: as §2
as §1, with “greenhouse. Seven days” for “greenhouse. Just”, “after sowing,” for “after that,”, “Table 6” for “Table 5”, “are. The test was performed with two replications per one formulation concentration plot, and 14 days after the formulation treatments, the weed suppression rate (%) was determined according to the equation (Math. 1).” for “are.”

SMILES | weed suppression rate, Scirpus juncoides [1] | weed suppression rate, Echinochloa crus-galli [2] | weed suppression rate, Monochoria vaginalis [3] | weed suppression rate, Lindemia pyxidaria [4] | weed suppression rate, Scirpus juncoides [5] | weed suppression rate, Echinochloa crus-galli [6] | weed suppression rate, Monochoria vaginalis [7] | weed suppression rate, Lindemia pyxidaria [8]
Cc1ccc(N(C(=O)n2ncn(S(=O)(=O)C(C)C)c2=O)C(C)C)c(Cl)c1 [Compound 1-81] | 90% | 90% | 80% | 80% | 90% | 90% | 80% | 80%
CC(C)N(C(=O)n1ncn(S(=O)(=O)C(C)C)c1=O)c1ccc(F)nc1 [Compound 1-91] | 90% | 100% | 90% | 90% | 90% | 100% | 90% | 90%
CC(C)N(C(=O)n1ncn(S(=O)(=O)C(C)C)c1=O)c1ccc(Cl)nc1 [Compound 1-97] | 90% | 90% | 90% | 80% | 80% | 90% | 90% | 80%
CC(C)N(C(=O)n1ncn(S(=O)(=O)C2CC2)c1=O)c1ccc(Br)cc1Cl [Compound 1-218] | 100% | 100% | 80% | 100% | 100% | 100% | 80% | 100%
CC(C)N(C(=O)n1ncn(S(=O)(=O)C2CC2)c1=O)c1ccc(Cl)cc1Br [Compound 1-219] | 100% | 100% | 100% | 100% | 100% | 100% | 90% | 90%
Cc1cc(F)ccc1N(C(=O)n1ncn(S(=O)(=O)C2CC2)c1=O)C(C)C [Compound 1-220] | 90% | 100% | 80% | 100% | 90% | 100% | 100% | 90%
Cc1ccc(N(C(=O)n2ncn(S(=O)(=O)C3CC3)c2=O)C(C)C)c(Cl)c1 [Compound 1-223] | 90% | 100% | 80% | 80% | 90% | 90% | 80% | 80%
CC(C)N(Cc1ccc(F)cc1F)C(=O)n1ncn(S(=O)(=O)C2CC2)c1=O [Compound 1-238] | 90% | 90% | 80% | 80% | 90% | 90% | 90% | 80%
CC(C)N(C(=O)n1ncn(S(=O)(=O)C2CC2)c1=O)c1ccc(Cl)nc1 [Compound 1-248] | 100% | 100% | 90% | 100% | 90% | 100% | 90% | 90%
Cc1cc(N(C(=O)n2ncn(S(=O)(=O)C3CC3)c2=O)C(C)C)no1 [Compound 1-250] | 90% | 90% | 80% | 80% | 80% | 90% | 90% | 90%
CC(C)N(C(=O)n1ncn(S(=O)(=O)C2CCCCC2)c1=O)c1ccccc1F [Compound 1-296] | 90% | 90% | 80% | 80% | 90% | 90% | 90% | 90%
CC(C)N(C(=O)n1ncn(S(=O)(=O)C2CCCCC2)c1=O)c1c(F)cc(F)cc1F [Compound 1-310] | 100% | 100% | 100% | 100% | 100% | 100% | 100% | 100%
CC(C)N(C(=O)n1ncn(S(=O)(=O)C2CCCCC2)c1=O)c1ccc(Cl)cc1F [Compound 1-314] | 100% | 100% | 80% | 100% | 100% | 90% | 90% | 100%
Cc1ccc(N(C(=O)n2ncn(S(=O)(=O)C3CCCCC3)c2=O)C(C)C)c(F)c1 [Compound 1-320] | 90% | 90% | 90% | 90% | 90% | 90% | 80% | 80%
Cc1ccc(N(C(=O)n2ncn(S(=O)(=O)C3CCCCC3)c2=O)C(C)C)c(Cl)c1 [Compound 1-322] | 90% | 90% | 90% | 90% | 90% | 90% | 80% | 80%
CC(C)N(C(=O)n1ncn(S(=O)(=O)C2CCCCC2)c1=O)c1ccc(C(F)(F)F)cc1F [Compound 1-323] | 100% | 100% | 80% | 100% | 70% | 100% | 70% | 70%
CC(C)N(C(=O)n1ncn(S(=O)(=O)C2CCCCC2)c1=O)c1ccc(C#N)cc1Cl [Compound 1-328] | 90% | 90% | 80% | 80% | 90% | 90% | 80% | 80%
CC(C)N(C(=O)n1ncn(S(=O)(=O)C2CCCCC2)c1=O)c1ccc(Cl)nc1 [Compound 1-338] | 100% | 100% | 90% | 90% | 90% | 90% | 80% | 80%
